One assay addresses T1, human H4 (Homo sapiens, UniProt Q9H3N8).
T1 construct: host or cells: CHO-K1
Kind of assay: In vitro histamine receptor cell-based assay (aequorin bioluminescence), H4 antagonism. The conditions noted are these: CHO-K1 cells expressing human H4, aequorin and Gα16; histamine at EC80; read-out: H4 Antagonist EC50. The procedure:
(§1) The cell-based assays utilize an aequorin dependent bioluminescence signal. Doubly-transfected, stable CHO-K1 cell lines expressing human H1 or H4, mitochondrion-targeted aequorin, and (H4 only) human G protein Gα16 are obtained from Perkin-Elmer. Cells are maintained in F12 (Ham's) growth medium, containing 10% (vol./vol.) fetal bovine serum, penicillin (100 IU/mL), streptomycin (0.1 mg/mL), zeocin (0.25 mg/mL) and geneticin (0.40 mg/mL). Cell media components are from Invitrogen, Inc. One day prior to assay, the growth medium is replaced with the same, excluding zeocin and geneticin.
(§2) For assay preparation, growth medium is aspirated, and cells are rinsed with calcium-free, magnesium-free phosphate-buffered saline, followed by two to three minute incubation in Versene (Invitrogen, Inc.) at 37° C. Assay medium (DMEM:F12 [50:50], phenol-red free, containing 1 mg/mL protease-free bovine serum albumin) is added to collect the released cells, which are then centrifuged. The cell pellet is re-suspended in assay medium, centrifuged once more, and re-suspended in assay medium to a final density of 5×10^6 cells/mL. Coelenterazine-h dye (500 μM in ethanol) is added to a final concentration of 5 μM, and mixed immediately. The conical tube containing the cells is then wrapped with foil to protect the light-sensitive dye. The cells are incubated for four hours further at room temperature (approximately 21° C.) with end-over-end rotation to keep them in suspension.
Just before assay, the dye-loaded cells are diluted to 0.75×10^6 cells/mL (H1 receptor) or 1.5×10^6 cells/mL (H4 receptor) with additional assay medium. Cells are dispensed to 1536 well micro-titer plates at 3 μL/well. To assay receptor antagonism, 60 nl of 100× concentration test compounds in 100% dimethyl sulfoxide (DMSO) are dispensed to the wells, one compound per well, by passive pin transfer, and the plates are incubated for 15 minutes at room temperature. […] The pipette dispenses 3 μL/well of agonist (histamine, at twice the final concentration, where final concentration is a previously determined EC80) in assay medium, with concurrent bioluminescence detection. Agonist activity of test compounds is excluded by separate assays that measure response to test compounds immediately, without added histamine agonist.
(§3) CCD image capture on the Lumilux includes a 5 second baseline read prior to agonist addition, and generally a 40 second read per plate after agonist addition. A decrease in bioluminescence signal (measured either as area-under-the-curve, or maximum signal amplitude minus minimum signal amplitude) correlates with receptor antagonism in a dose dependent manner. The negative control is DMSO lacking any test compound. For antagonist assays, the positive controls are diphenhydramine (2-Diphenylmethoxy-N,N-dimethylethylamine, 10 μM final concentration, H1 receptor) or JNJ7777120 (1-[(5-Chloro-1H-indol-2-yl)carbonyl]-4-methyl-piperazine, 10 μM final concentration, H4 receptor). Efficacy is measured as a percentage of positive control activity.

The next assay addresses T2, human H1 (Homo sapiens, UniProt P35367).
T2 construct: host or cells: CHO-K1
Kind of assay: In vitro histamine receptor cell-based assay (aequorin bioluminescence), H1 antagonism. The settings on record: CHO-K1 cells expressing human H1 and aequorin; histamine at EC80; read-out: H1 Antagonist EC50. The procedure:
as §1, §2
Just before assay, the dye-loaded cells are diluted to 0.75×10^6 cells/mL (H1 receptor) or 1.5×10^6 cells/mL (H4 receptor) with additional assay medium. Cells are dispensed to 1536 well micro-titer plates at 3 μL/well. To assay receptor antagonism, 60 nl of 100× concentration test compounds in 100% dimethyl sulfoxide (DMSO) are dispensed to the wells, one compound per well, by passive pin transfer, and the plates are incubated for 15 minutes at room temperature. Assay plates are then transferred to a Lumilux bioluminescence plate reader (Perkin-Elmer) equipped with an automated 1536 disposable tip pipette. The pipette dispenses 3 μL/well of agonist (histamine, at twice the final concentration, where final concentration is a previously determined EC80) in assay medium, with concurrent bioluminescence detection. Agonist activity of test compounds is excluded by separate assays that measure response to test compounds immediately, without added histamine agonist.
as §3

Counter-ions that a name gives are not always drawn. Bounds are passed on as bounds.

T2 sequence (P35367 whole entry): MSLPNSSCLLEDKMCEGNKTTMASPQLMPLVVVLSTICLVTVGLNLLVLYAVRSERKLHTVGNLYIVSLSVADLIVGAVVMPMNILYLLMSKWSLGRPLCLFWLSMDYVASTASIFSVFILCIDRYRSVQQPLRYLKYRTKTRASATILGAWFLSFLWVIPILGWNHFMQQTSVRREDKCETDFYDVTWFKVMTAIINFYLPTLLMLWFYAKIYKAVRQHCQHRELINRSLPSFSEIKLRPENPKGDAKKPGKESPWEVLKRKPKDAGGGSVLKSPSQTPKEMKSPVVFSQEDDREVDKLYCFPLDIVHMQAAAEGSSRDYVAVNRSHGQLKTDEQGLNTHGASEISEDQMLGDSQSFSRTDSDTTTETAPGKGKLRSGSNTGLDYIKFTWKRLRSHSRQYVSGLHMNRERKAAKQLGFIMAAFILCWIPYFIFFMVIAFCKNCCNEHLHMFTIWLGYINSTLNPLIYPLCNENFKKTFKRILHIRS
T1 sequence (Q9H3N8 whole entry): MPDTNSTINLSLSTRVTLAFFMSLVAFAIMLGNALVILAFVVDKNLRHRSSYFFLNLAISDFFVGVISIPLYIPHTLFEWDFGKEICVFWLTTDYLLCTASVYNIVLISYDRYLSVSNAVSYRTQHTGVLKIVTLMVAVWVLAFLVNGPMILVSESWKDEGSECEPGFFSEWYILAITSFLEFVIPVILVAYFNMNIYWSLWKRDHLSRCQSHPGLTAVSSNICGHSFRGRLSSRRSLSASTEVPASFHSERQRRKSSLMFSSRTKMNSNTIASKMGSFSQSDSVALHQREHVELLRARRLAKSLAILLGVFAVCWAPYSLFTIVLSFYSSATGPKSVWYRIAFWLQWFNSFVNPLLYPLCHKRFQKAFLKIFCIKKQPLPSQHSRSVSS

Turning to `Clc1ccc2nc(C3=CCNCC3)c3nncn3c2c1` [Example 1, 8-chloro-4-(1,2,3,6-tetrahydropyridin-4-yl)-[1,2,4]triazolo[4,3-a]quinoxaline], the EC50 on human H4 and at human H1 was more than 10 µM each time.

In the case of `CN1CC=C(c2nc3ccc(Cl)cc3n3cnnc23)CC1` [Example 2, 8-Chloro-4-(1-methyl-1,2,3,6-tetrahydropyridin-4-yl)-[1,2,4]triazolo[4,3-a]quinoxaline], the results for the EC50 on human H4 and on human H1 were less than 10 µM and more than 10 µM, respectively.

Turning to `Clc1ccc2nc(C3CCNCC3)c3nncn3c2c1` [Example 3, 8-Chloro-4-(piperidin-4-yl)-[1,2,4]triazolo[4,3-a]quinoxaline], the EC50 on human H4 and at human H1 was more than 10 µM each time.

Regarding `CN1CCC(c2nc3ccc(Cl)cc3n3cnnc23)CC1` [Example 4, 8-Chloro-4-(1-methylpiperidin-4-yl)-[1,2,4]triazolo[4,3-a]quinoxaline], the EC50 on human H4 was less than 10 µM; on human H1, more than 10 µM.

Consider `CN1CCN(C2=Nc3ccc(Cl)cc3N3CCN=C23)CC1` [Example 5, 8-Chloro-4-(4-methylpiperazin-1-yl)-1,2-dihydroimidazo[1,2-a]quinoxaline], for which the EC50 on human H4 was less than 10 µM; on human H1, more than 10 µM.

On to `Clc1ccc2c(c1)N1CCN=C1C(N1CCNCC1)=N2` [Example 6, 8-Chloro-4-(piperazin-1-yl)-1,2-dihydroimidazo[1,2-a]quinoxaline], for which the EC50 on human H4 is less than 10 µM; at human H1, more than 10 µM.

As to `Clc1ccc2nc(N3CCNCC3)c3nccn3c2c1` [Example 8, 8-Chloro-4-(piperazin-1-yl)imidazo[1,2-a]quinoxaline], the EC50 at human H4 is less than 10 µM; on human H1, more than 10 µM.

Regarding `Cc1cn2c(n1)c(N1CCN(C)CC1)nc1ccc(Cl)cc12` [Example 9, 8-Chloro-2-methyl-4-(4-methylpiperazin-1-yl)imidazo[1,2-a]quinoxaline], the EC50 is less than 10 µM at human H4 and more than 10 µM on human H1.

`Cc1cn2c(n1)c(N1CCNCC1)nc1ccc(Cl)cc12` [Example 10, 8-Chloro-2-methyl-4-(piperazin-1-yl)imidazo[1,2-a]quinoxaline]: the EC50 on human H4 and at human H1 was more than 10 µM throughout.

On to `Cc1cn2c(n1)c(N1CCN(C)CC1)nc1cc(Cl)ccc12` [Example 11, 7-Chloro-2-methyl-4-(4-methylpiperazin-1-yl)imidazo[1,2-a]quinoxaline], for which the values for the EC50 on human H4 and at human H1 were less than 10 µM and more than 10 µM, respectively.

For `Clc1ccc2nc(N3CCNCC3)n3nnnc3c2c1` [Example 12, 9-Chloro-5-(piperazin-1-yl)tetrazolo[1,5-c]quinazoline], the EC50 was less than 10 µM on human H4 and more than 10 µM on human H1.

Take `CN1CCN(c2nc3ccc(Cl)cc3c3nnnn23)CC1` [Example 13, 9-chloro-5-(4-methylpiperazin-1-yl)tetrazolo[1,5-c]quinazoline]: the EC50 is less than 10 µM at human H4 and more than 10 µM on human H1.

As to `CN1CCN(c2nc3ccc(Cl)cc3c3nncn23)CC1` [Example 14, 9-chloro-5-(4-methylpiperazin-1-yl)-[1,2,4]triazolo[4,3-c]quinazoline], the concentration giving a half-maximal response (EC50) is more than 10 µM at human H4 and less than 10 µM at human H1.

With `Cc1ccc2nc(N3CCN(C)CC3)c3nnnn3c2c1` [Example 15, 8-methyl-4-(4-methylpiperazin-1-yl)tetrazolo[1,5-a]quinoxaline], the values for the concentration giving a half-maximal response (EC50) at human H4 and at human H1 were less than 10 µM and more than 10 µM, respectively.

Consider `Clc1ccc2c(c1)nc(N1CCNCC1)c1nnnn12` [Example 16, 7-Chloro-4-(piperazin-1-yl)tetrazolo[1,5-a]quinoxaline], for which the EC50 on human H4 is less than 10 µM; at human H1 it was more than 10 µM.

As to `CN1CCN(c2nc3cc(Cl)ccc3n3nnnc23)CC1` [Example 17, 7-Chloro-4-(4-methylpiperazin-1-yl)tetrazolo[1,5-a]quinoxaline], the concentration giving a half-maximal response (EC50) at human H4 was less than 10 µM; on human H1, more than 10 µM.

On to `Cc1ccc2nc(N3CCNCC3)c3nnnn3c2c1` [Example 18, 8-Methyl-4-(piperazin-1-yl)tetrazolo[1,5-a]quinoxaline], for which the figures for the EC50 on human H4 and at human H1 were less than 10 µM and more than 10 µM, respectively.

On to `Cc1ccc2nc(N3CCNCC3)c3nncn3c2c1` [Example 22, 8-Methyl-4-(piperazin-1-yl)-[1,2,4]triazolo[4,3-a]quinoxaline], for which the results for the EC50 on human H4 and on human H1 were less than 10 µM and more than 10 µM, respectively.

As to `CN1CCN(c2nc3cc(C(F)(F)F)ccc3n3cnnc23)CC1` [Example 25, 4-(4-methylpiperazin-1-yl)-7-(trifluoromethyl)-[1,2,4]triazolo[4,3-a]quinoxaline], the EC50 at human H4 was less than 10 µM; on human H1, more than 10 µM.

Take `FC(F)(F)c1ccc2c(c1)nc(N1CCNCC1)c1nncn12` [Example 26, 4-(piperazin-1-yl)-7-(trifluoromethyl)-[1,2,4]triazolo[4,3-a]quinoxaline]: the 50% effective concentration (EC50) on human H4 and on human H1 was more than 10 µM each time.

As for `CN1CCN(c2nc3cc(C(F)(F)F)ccc3n3nnnc23)CC1` [Example 28, 4-(4-methylpiperazin-1-yl)-7-(trifluoromethyl)tetrazolo[1,5-a]quinoxaline], the results for the EC50 on human H4 and at human H1 were less than 10 µM and more than 10 µM, respectively.

For the molecule `FC(F)(F)c1ccc2c(c1)nc(N1CCNCC1)c1nnnn12` [Example 30, 4-(piperazin-1-yl)-7-(trifluoromethyl)tetrazolo[1,5-a]quinoxaline hydrochloride], the results for the EC50 at human H4 and on human H1 were less than 10 µM and more than 10 µM, respectively.

Regarding `CN1CCN(c2nc3cc(Cl)c(F)cc3n3cnnc23)CC1` [Example 33, 7-chloro-8-fluoro-4-(4-methylpiperazin-1-yl)-[1,2,4]triazolo[4,3-a]quinoxaline], the figures for the half-maximal effective concentration (EC50) on human H4 and at human H1 were less than 10 µM and more than 10 µM, respectively.

Turning to `Cc1cc2c(cc1F)nc(N1CCN(C)CC1)c1nncn12` [Example 34, 7-fluoro-8-methyl-4-(4-methylpiperazin-1-yl)-[1,2,4]triazolo[4,3-a]quinoxaline], the EC50 is less than 10 µM on human H4 and more than 10 µM on human H1.

With `Cc1cc2c(cc1F)nc(N1CCNCC1)c1nncn12` [Example 35], the EC50 at human H4 and at human H1 was more than 10 µM each time.

In the case of `Cc1cc2nc(N3CCN(C)CC3)c3nncn3c2cc1F` [Example 36, 8-fluoro-7-methyl-4-(4-methylpiperazin-1-yl)-[1,2,4]triazolo[4,3-a]quinoxaline], the EC50 was less than 10 µM at human H4 and more than 10 µM at human H1.

Turning to `Fc1cc2nc(N3CCNCC3)c3nncn3c2cc1F` [Example 38, 7,8-difluoro-4-(piperazin-1-yl)-[1,2,4]triazolo[4,3-a]quinoxaline], the EC50 at human H4 is less than 10 µM; at human H1, more than 10 µM.

As to `CN1CCN(c2nc3cc(C(F)(F)F)c(F)cc3n3cnnc23)CC1` [Example 42, 8-fluoro-4-(4-methylpiperazin-1-yl)-7-(trifluoromethyl)-[1,2,4]triazolo[4,3-a]quinoxaline], the EC50 on human H4 was less than 10 µM; on human H1, more than 10 µM.

`FC(F)(F)c1ccc2nc(N3CCNCC3)c3nocc3c2c1` [Example 219, 4-piperazinyl-8-(trifluoromethyl)isoxazolo[3,4-c]quinoline]: at human H1, the EC50 was more than 10 µM.

For the origin of these results see patent US20120065187A1 (ALCON RESEARCH, LTD, priority 2008, published 2012).
